Tests used:
[1] = (§1) The drug is tested on Z-029 corresponding to rat gut metagenome with ENA study accession number: PRJEB37062 and ENA sample accession number: ERS12561828 for biotransformation under anaerobic condition. The drug concentrations were measured over 9 timepoints collected between 0 and 24 hours of incubation by liquid-chromatography-coupled mass spectrometry (LC–MS); settings: 2 µM
[2] = as §1, with “Z-027” for “Z-029”, “to” for “to rat gut”, “ERS12561826” for “ERS12561828”; settings: 2 µM
[3] = as §1, with “on Z-025” for “on Z-029”, “to rabbit” for “to rat”, “number: ERS12561824” for “number: ERS12561828”; settings: 2 µM
[4] = as §1, with “Z-023” for “Z-029”, “to” for “to rat gut”, “ERS12561822” for “ERS12561828”; settings: 2 µM
[5] = as §1, with “Z-012” for “Z-029”, “to” for “to rat gut”, “ERS12561812” for “ERS12561828”; settings: 2 µM
[6] = as §1, with “on Z-009” for “on Z-029”, “to pig” for “to rat”, “number: ERS12561809” for “number: ERS12561828”; settings: 2 µM
[7] = as §1, with “Z-005” for “Z-029”, “to” for “to rat gut”, “ERS12561805” for “ERS12561828”; settings: 2 µM
[8] = as §1, with “on Z-002” for “on Z-029”, “to rabbit” for “to rat”, “number: ERS12561802” for “number: ERS12561828”; settings: 2 µM
[9] = as §1, with “on WLS-090” for “on Z-029”, “to human” for “to rat”, “number: ERS12561753” for “number: ERS12561828”; settings: 2 µM
[10] = as §1, with “on WLS-027” for “on Z-029”, “to human” for “to rat”, “number: ERS12561744” for “number: ERS12561828”; settings: 2 µM
[11] = as §1, with “on WLS-006” for “on Z-029”, “to human” for “to rat”, “number: ERS12561741” for “number: ERS12561828”; settings: 2 µM
[12] = human gut metagenome, 24 h, 2 µM
[13] = human gut metagenome, 24 h, 2 µM; remark: listed apart in the source
[14] = human gut metagenome, 24 h, 2 µM; remark: listed apart in the source
[15] = human gut metagenome, 24 h, 2 µM; remark: listed apart in the source
[16] = human gut metagenome, 24 h, 2 µM; remark: listed apart in the source
[17] = human gut metagenome, 24 h, 2 µM; remark: listed apart in the source
[18] = human gut metagenome, 24 h, 2 µM; remark: listed apart in the source
[19] = human gut metagenome, 24 h, 2 µM; remark: listed apart in the source
[20] = human gut metagenome, 24 h, 2 µM; remark: listed apart in the source
Further: call rule not given here.

SMILES: O=C1[C@H](CC[C@H](O)c2ccc(F)cc2)[C@@H](c2ccc(O)cc2)N1c1ccc(F)cc1 [EZETIMIBE]
- Bacterial Biotransformation [1]: Compound NOT metabolized
- Bacterial Biotransformation [2]: Compound NOT metabolized
- Bacterial Biotransformation [3]: Compound NOT metabolized
- Bacterial Biotransformation [4]: Compound metabolized
- Bacterial Biotransformation [5]: Compound NOT metabolized
- Bacterial Biotransformation [6]: Compound NOT metabolized
- Bacterial Biotransformation [7]: Compound NOT metabolized
- Bacterial Biotransformation [8]: Compound NOT metabolized
- Bacterial Biotransformation [9]: Compound metabolized
- Bacterial Biotransformation [10]: Compound NOT metabolized
- Bacterial Biotransformation [11]: Compound metabolized
- Bacterial Biotransformation [12]: Compound NOT metabolized
- Bacterial Biotransformation [13]: Compound NOT metabolized
- Bacterial Biotransformation [14]: Compound NOT metabolized
- Bacterial Biotransformation [15]: Compound NOT metabolized
- Bacterial Biotransformation [16]: Compound NOT metabolized
- Bacterial Biotransformation [17]: Compound metabolized
- Bacterial Biotransformation [18]: Compound NOT metabolized
- Bacterial Biotransformation [19]: Compound NOT metabolized
- Bacterial Biotransformation [20]: Compound NOT metabolized
